Measurements reported in US20060141486A1, “Porous substrates and arrays comprising the same” (priority 2004, published 2006).

Assays:
Test in all cases: GPCR array binding assay on flow-through microplate with GAPS porous substrate
[1] = target: T1, human muscarinic receptor subtype 1 (M1) (Homo sapiens, UniProt P11229)
T1 sequence (P11229 1-460): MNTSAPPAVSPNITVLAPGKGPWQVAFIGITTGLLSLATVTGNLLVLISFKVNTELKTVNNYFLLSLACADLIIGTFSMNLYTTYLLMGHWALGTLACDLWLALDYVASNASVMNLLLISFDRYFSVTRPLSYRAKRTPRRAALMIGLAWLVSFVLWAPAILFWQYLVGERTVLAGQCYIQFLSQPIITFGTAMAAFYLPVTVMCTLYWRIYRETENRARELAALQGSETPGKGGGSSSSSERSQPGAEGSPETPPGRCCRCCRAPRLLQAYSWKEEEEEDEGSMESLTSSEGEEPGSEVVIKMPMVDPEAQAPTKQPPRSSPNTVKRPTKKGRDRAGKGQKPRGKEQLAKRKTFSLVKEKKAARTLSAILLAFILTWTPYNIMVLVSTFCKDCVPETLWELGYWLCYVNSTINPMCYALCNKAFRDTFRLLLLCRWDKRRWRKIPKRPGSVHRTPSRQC
Protocol: (§1) 96 patches of silica-based porous substrate (GAPS™, Corning Inc.) were screen printed onto a 1737 glass support plate, and sintered at 695° C. The glass support was pre-fabricated by sand blasting to generate 192 microchannels. Under each porous patch, there are two microchannels which provide access to the porous patch from the opposite side of the glass support. Human muscarinic receptor subtype 1 (M1), delta opioid receptor subtype 2 (delta2), and muscarinic receptor subtype 2 (M2) were printed onto the GAPS™-porous substrate with a configuration such that each receptor was aligned in one column with four replicates (i.e., columns 1, 2 and 3 for M1, delta2 and M2 receptors, respectively; see FIG. 4A). […] After one hour incubation, a vacuum force was applied to remove the assay solution and the sequential washing solution before the array was finally being dried.

[2] = target: T2, human muscarinic receptor subtype 2 (M2) (Homo sapiens, UniProt P08172)
T2 sequence (P08172 1-466): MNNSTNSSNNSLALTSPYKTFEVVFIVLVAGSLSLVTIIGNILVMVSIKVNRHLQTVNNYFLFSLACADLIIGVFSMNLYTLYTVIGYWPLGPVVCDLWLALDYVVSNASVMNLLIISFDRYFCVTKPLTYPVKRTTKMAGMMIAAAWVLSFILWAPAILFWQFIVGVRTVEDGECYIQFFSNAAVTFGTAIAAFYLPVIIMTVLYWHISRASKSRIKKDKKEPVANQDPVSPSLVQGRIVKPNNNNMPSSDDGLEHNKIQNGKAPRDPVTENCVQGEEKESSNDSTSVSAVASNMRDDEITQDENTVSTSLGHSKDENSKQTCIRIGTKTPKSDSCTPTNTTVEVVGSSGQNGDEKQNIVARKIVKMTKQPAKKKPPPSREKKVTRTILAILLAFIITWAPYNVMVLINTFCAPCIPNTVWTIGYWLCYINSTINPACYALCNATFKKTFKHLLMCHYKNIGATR
Protocol: as §1

[3] = target: human delta opioid receptor subtype 2 (delta2) (Homo sapiens, UniProt P41143); conditions: 4 nM Cy5-naltrexone in cocktail of labeled ligands, one hour incubation, FIG. 4A
Chain of human delta opioid receptor subtype 2 (delta2) (P41143 whole entry): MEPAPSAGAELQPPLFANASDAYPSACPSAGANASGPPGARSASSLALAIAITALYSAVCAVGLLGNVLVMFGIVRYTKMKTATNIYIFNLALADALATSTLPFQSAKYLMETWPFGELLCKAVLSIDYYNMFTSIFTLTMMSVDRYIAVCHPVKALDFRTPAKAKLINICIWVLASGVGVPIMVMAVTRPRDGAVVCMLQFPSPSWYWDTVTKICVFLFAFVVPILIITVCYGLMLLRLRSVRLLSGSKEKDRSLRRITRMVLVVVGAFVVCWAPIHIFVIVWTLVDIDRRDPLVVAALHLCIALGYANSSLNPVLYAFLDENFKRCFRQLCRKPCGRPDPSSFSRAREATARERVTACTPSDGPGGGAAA
Protocol: as §1

[4] = unlabeled telenzepine 2 μM (with naltrexone 4 μM), FIG. 4B
[5] = 2 nM Cy3B-telenzepine in cocktail of labeled ligands, one hour incubation, FIG. 4A

Compound: Cc1scc2c1N(C(=O)CN1CCN(C)CC1)c1ccccc1NC2=O [telenzepine]
- inhibition of Cy3B-telenzepine binding to M1 receptor by unlabeled compound [1, 4]: inhibited
- inhibition of Cy3B-telenzepine binding to M2 receptor by unlabeled compound [2, 4]: inhibited

Compound: Cy3B-telenzepine
- binding of labeled ligand to M1 receptor microspots (fluorescence) [1, 5]: strong binding
- binding of labeled ligand to M2 receptor microspots (fluorescence) [2, 5]: Weak binding signals

Compound: Cy5-naltrexone
- binding of labeled ligand to delta2 receptor microspots (fluorescence) [3]: strong binding
